Measured values from patent US5229410A, “6-substituted-hexahydrobenz[cd]indoles” (Eli Lilly and Company, priority 1991, dated 1993).

Target: T1, serotonin 1A receptor (Rattus norvegicus, UniProt P19327)
T1 construct: from tissue; host or cells: cerebral cortex of male Sprague-Dawley rats (synaptosomal membranes)
T1 sequence (P19327 1-422): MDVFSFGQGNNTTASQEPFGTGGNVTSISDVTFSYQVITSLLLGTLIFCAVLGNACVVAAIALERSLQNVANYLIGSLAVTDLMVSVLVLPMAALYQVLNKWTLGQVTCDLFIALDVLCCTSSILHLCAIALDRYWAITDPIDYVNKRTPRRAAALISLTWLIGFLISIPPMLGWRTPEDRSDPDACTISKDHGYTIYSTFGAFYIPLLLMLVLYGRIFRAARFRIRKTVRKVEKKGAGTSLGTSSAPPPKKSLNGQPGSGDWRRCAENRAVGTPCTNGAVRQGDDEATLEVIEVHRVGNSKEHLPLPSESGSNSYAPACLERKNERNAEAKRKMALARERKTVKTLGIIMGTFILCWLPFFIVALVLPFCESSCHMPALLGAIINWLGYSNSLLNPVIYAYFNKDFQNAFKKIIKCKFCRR
Test: serotonin 1A receptor binding (3H-8-OH-DPAT, rat cerebral cortex synaptosomal membranes)
Design: species or system Male Sprague-Dawley rats
Settings: 0.4 nM 3H-8-OH-DPAT, pH 7.4, 37° C., 10 min, read-out: IC50 (concentration necessary to inhibit the binding of 3H-8-OH-DPAT by 50%)
Experimental: The compound of Example 14 was evaluated for its ability to interact with serotonin 1A receptor using the following procedure which is generally set forth in Wong et al., J. Neural Transm., 71, 207-218 (1988). Male Sprague-Dawley rats (110-150 g) from Harlan Industries (Cumberland, Ill.) were fed a Purina Chow ad libitum for at least 3 days before being used in the studies. Rats were killed by decapitation. The brains were rapidly removed, and the cerebral cortices were dissected out at 4° C.
Brain tissues were homogenized in 0.32M sucrose. After centrifugation at 1000×g for 10 min and then at 17,000×g for 20 min, a crude synaptosomal fraction was sedimented. The pellet was suspended in 100 vol of 50 mM Tris-HCl, pH 7.4, incubated at 37° C. for 10 min, and centrifuged at 50,000×g for 10 min. The process was repeated and the final pellet was suspended in ice-chilled 50 mM Tris-HCl, pH 7.4. […]
Binding of (^3 H-8-OH-DPAT) was performed according to the previously described method [Wong et al., J. Neural Transm. […] Radioactivity was measured with a liquid scintillation spectrometer. […] Specific binding of ^3 H-8-OH-DPAT is defined as the difference of radioactivity bound in the absence and in the presence of 10 μM unlabeled 8-OH-DPAT. […]

C#Cc1ccc2c3c1C[C@H](N(CCC)CCC)C[C@@H]3CN2 [Example 14, (2aS,4R)-6-ethynyl-4-(di-n-propylamino)-1,2,2a,3,4,5-hexahydrobenz[cd]indole]
IC50: 0.5 nM
